Results reported in ChEMBL document CHEMBL4828715, “Discovery, Structure-Activity Relationships, and In Vivo Evaluation of Novel Aryl Amides as Brain Penetrant Adaptor Protein 2-Associated Kinase 1 (AAK1) Inhibitors for the Treatment of Neuropathic Pain” (J Med Chem, 2021).
Calls of active or inactive are those of the source. The rule behind the calls is not given here.

What was measured:
[1] = Induction of motor coordination impairment in Sprague-Dawley rat at 100 mg/kg, po measured up to 180 mins by rotarod test; assay type: organism-based; settings: in vivo, 3 h
[2] = Toxicity in Sprague-Dawley rat assessed as drowsiness at 100 mg/kg, po; assay type: organism-based; settings: in vivo
Rattus norvegicus [3] = experiment: Reversal of chronic constriction injury-induced mechanical allodynia in Sprague-Dawley rat model of neuropathic pain at 100 mg/kg, sc measured up to 180 mins relative to control; assay type: functional; settings: time min <=180
Rattus norvegicus [4] = experiment: Antinociceptive activity in Sprague-Dawley rat model of chronic constriction injury-induced neuropathic pain assessed as reduction in mechanical hyperalgesia 100 mg/kg, po by Von Frey test relative to control; assay type: functional; design: scale not given: the % may be the effect or the level left
[5] = Toxicity in Sprague-Dawley rat assessed as dizziness at 100 mg/kg, po; assay type: organism-based; settings: in vivo
Rattus norvegicus [6] = experiment: Reversal of chronic constriction injury-induced cold allodynia in Sprague-Dawley rat model of neuropathic pain at 100 mg/kg, po measured up to 180 mins relative to control; assay type: functional; settings: time min <=180
[7] = Toxicity in Sprague-Dawley rat assessed as unsteadiness at 100 mg/kg, po; assay type: organism-based; settings: in vivo
Rattus norvegicus [8] = experiment: Antinociceptive activity in Sprague-Dawley rat model of chronic constriction injury-induced neuropathic pain assessed as reduction in paw withdrawal latency at 100 mg/kg, po by Von Frey test; assay type: functional, organism-based
Rattus norvegicus [9] = experiment: Antinociceptive activity in Sprague-Dawley rat model of chronic constriction injury-induced neuropathic pain assessed as reduction in thermal hyperalgesia 100 mg/kg, po by Von Frey test relative to control; assay type: functional; design: scale not given: the % may be the effect or the level left
[10] = Metabolic stability in mouse liver microsomes assessed as parent compound remaining at 0.5 uM incubated for 10 mins in presence of NADPH by LC-MS/MS analysis; assay type: ADME, Microsome; settings: read-out: Stability
[11] = Protein binding in mouse plasma assessed as unbound fraction at 10 uM measured after 5 hrs by equilibrium dialysis method
[12] = Metabolic stability in human liver microsomes assessed as parent compound remaining at 0.5 uM incubated for 10 mins in presence of NADPH by LC-MS/MS analysis; assay type: ADME, Microsome; settings: read-out: Stability
[13] = molecular target: T1, AP2-associated protein kinase 1 (Homo sapiens, UniProt Q2M2I8); experiment: Inhibition of recombinant GST-Xa-tagged human AAK1 (30 to 330 residues) using 5-FAM-labelled Alla-KEEQSQITSQVTGQIGWR-NH2 peptide as substrate incubated for 3 hrs in presence of ATP by electrophoretic analysis
[14] = Permeability of the compound across apical to basolateral membrane in human Caco-2 cells incubated for 2 hrs by LC-MS/MS analysis
[15] = Permeability of the compound across basolateral to apical membrane in human Caco-2 cells incubated for 2 hrs by LC-MS/MS analysis; assay type: ADME, cell-based; settings: Caco-2, read-out: permeability
[16] = Metabolic stability in rat liver microsomes assessed as parent compound remaining at 0.5 uM incubated for 10 mins in presence of NADPH by LC-MS/MS analysis; assay type: ADME, Microsome; settings: read-out: Stability
[17] = Protein binding in human plasma assessed as unbound fraction at 10 uM measured after 5 hrs by equilibrium dialysis method
[18] = molecular target: T1, AP2-associated protein kinase 1; experiment: Inhibition of human AAK1 expressed in HEK293 cells assessed as suppression of AP2 phosphorylation measured after 3 hrs by Western blot analysis; assay type: cell-based
[19] = Permeability of the compound at pH 5.5 incubated for 4 hrs by PAMPA-based UV spectrophotometry; assay type: ADME; settings: read-out: permeability
[20] = Protein binding in rat plasma assessed as unbound fraction at 10 uM measured after 5 hrs by equilibrium dialysis method
[21] = Permeability of the compound at pH 7.4 incubated for 4 hrs by PAMPA-based UV spectrophotometry; assay type: ADME; settings: PAMPA, pH 7.4, read-out: permeability
[22] = Drug concentration in C57BL6 mouse brain at 30 mg/kg, sc measured after 2 hrs by LC-MS/MS analysis; assay type: ADME, organism-based; settings: read-out: Ct
[23] = Drug concentration in C57BL6 mouse plasma at 30 mg/kg, sc measured after 2 hrs by LC-MS/MS analysis; assay type: ADME, organism-based
[24] = Efflux ratio of permeability across basolateral to apical membrane over apical to basolateral membrane in human Caco-2 cells
[25] = Ratio of drug concentration in brain to plasma in C57BL6 mouse at […], sc; assay type: ADME; settings: read-out: BPR
[26] = molecular target: T1, AP2-associated protein kinase 1; experiment: Inhibition of AAK1 (unknown origin)

T1 sequence (Q2M2I8 whole entry, the tested form may be a part): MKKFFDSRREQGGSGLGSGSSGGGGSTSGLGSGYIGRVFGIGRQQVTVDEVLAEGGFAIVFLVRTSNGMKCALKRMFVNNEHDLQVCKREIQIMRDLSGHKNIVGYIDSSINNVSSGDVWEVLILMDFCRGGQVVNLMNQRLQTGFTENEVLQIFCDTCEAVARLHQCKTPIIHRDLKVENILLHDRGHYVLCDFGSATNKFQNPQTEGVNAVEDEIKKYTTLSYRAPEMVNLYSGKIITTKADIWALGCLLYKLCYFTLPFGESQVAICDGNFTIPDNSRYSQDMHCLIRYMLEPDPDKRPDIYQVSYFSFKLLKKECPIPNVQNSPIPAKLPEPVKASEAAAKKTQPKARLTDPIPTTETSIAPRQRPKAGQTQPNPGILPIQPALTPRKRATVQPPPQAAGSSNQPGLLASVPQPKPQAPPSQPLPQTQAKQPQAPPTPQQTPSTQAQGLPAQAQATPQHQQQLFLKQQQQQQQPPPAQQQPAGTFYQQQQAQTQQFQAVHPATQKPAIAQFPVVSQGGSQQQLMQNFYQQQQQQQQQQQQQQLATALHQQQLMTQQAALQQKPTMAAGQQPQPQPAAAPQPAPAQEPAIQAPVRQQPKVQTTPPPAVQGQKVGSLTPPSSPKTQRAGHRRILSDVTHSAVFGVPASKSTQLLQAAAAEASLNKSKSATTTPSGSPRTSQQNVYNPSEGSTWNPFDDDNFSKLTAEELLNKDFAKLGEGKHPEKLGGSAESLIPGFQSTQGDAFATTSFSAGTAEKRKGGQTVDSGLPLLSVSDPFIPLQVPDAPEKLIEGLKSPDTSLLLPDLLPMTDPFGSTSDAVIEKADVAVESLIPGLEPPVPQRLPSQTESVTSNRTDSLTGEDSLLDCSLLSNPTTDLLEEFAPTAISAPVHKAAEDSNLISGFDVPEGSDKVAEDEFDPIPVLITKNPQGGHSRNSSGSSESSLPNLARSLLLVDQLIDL

Row | Compound | remaining at 10 min, 0.5 µM [10] | fraction unbound at 5 h, 10 µM [11] | remaining at 10 min, 0.5 µM [12] | IC50 [13] | Papp A→B at 2 h [14] | Papp B→A at 2 h [15] | remaining at 10 min, 0.5 µM [16] | fraction unbound at 5 h, 10 µM [17] | IC50 [18] | Papp at 4 h [19] | fraction unbound at 5 h, 10 µM [20] | Papp at 4 h [21] | concentration at 2 h [22] | concentration at 2 h [23] | Kp [25] | further results
1 | NCC1(CC(=O)O)CCCCC1 [GABAPENTIN] | – | – | – | – | – | – | – | – | – | – | – | – | – | – | – | Activity [1]: Toxic; Activity [2]: Toxic; Activity (Rattus norvegicus [3]): 34%; Activity (Rattus norvegicus [4]): 32%; Activity [5]: Toxic; Activity (Rattus norvegicus [6]): 54%; Activity [7]: Toxic; Activity (Rattus norvegicus [8]): Active; Activity (Rattus norvegicus [9]): 89%
2 | COc1cc(NC(=O)[C@@H]2NCCC[C@@H]2C(C)C)ccc1-c1cnco1 | 2% | 0.028 | 60% | 0.01 µM | 167 nm/s | 119 nm/s | 42% | 0.19 | 0.105 µM | 471 nm/s | 0.059 | 435 nm/s | – | – | – | –
3 | COc1cc(NC(=O)[C@H](N)CC(C)C)ccc1-c1cn[nH]c1 | 34% | 0.2 | 85% | 0.015 µM | 40 nm/s | 149 nm/s | 74% | 0.18 | 0.19 µM | – | 0.1 | – | 5.7 µM | 29.9 µM | 0.21 | efflux ratio [24]: 3.3
4 | COc1cc(NC(=O)[C@H](N)CC(C)C)ccc1-c1cnco1 | 64% | 0.086 | 89% | 0.012 µM | 137 nm/s | 151 nm/s | 75% | 0.063 | 0.06 µM | 569 nm/s | 0.023 | 584 nm/s | 6.8 µM | 7.3 µM | 1.17 | –
5 | Cc1nccc2c1c(=O)n(C)c1cc(OC[C@@H](N)CC(C)C)c(C#N)cc21 | – | – | – | – | – | – | – | – | – | – | – | – | – | – | – | IC50 [26]: 0.0007 µM
